Here are results for twelve compounds from patent US11180530B2, “Salt of phenylpropionamide derivative and preparation method therefor” (priority 2017, dated 2021).

The format of data set [1] is physicochemical. The method, then: Samples of the compound represented by formula (I) and acetate, hydrochloride, citrate and phosphate of the compound represented by formula (I) were respectively placed open and evenly spread, so that the stability of the samples were investigated under the conditions of room temperature, heating (40° C., 60° C.), illumination (4500Lux) and high humidity (RH75% and RH90%). The sampling period is 20 days.

The format of data set [2] is physicochemical. As to the method: Samples of acetate, hydrochloride, citrate and phosphate of the compound represented by formula (I) were subjected to a long-term accelerated stability investigation for 6 months under dark and sealed conditions (the inner package is a medicinal low-density polyethylene composite film and the outer package is aluminum foil), humidity (60% RH), temperature (4° C., 25° C.) and with/without nitrogen protection.
This is another data set of the same source.

Setting [3] is: 25° C., 60% RH, nitrogen protection, 1 month.
The mark [4] stands for this setting: 25° C., 60% RH, nitrogen protection, 3 months.
Where [5] appears, read: 25° C., 60% RH, nitrogen protection, 6 months.
The mark [6] stands for this setting: 25° C., 60% RH, nitrogen protection, initial.

Counter-ions that a name gives are not always drawn. Like-named read-outs stand apart in the source and are kept apart here. Where a SMILES comes first, the peptide text is derived from it. [ ]: non-standard residue; d: D form. The star is where a group is joined. Gly(N-(2R-Ph-propyl)) = C[C@@H](CNCC(=O)O)c1ccccc1; Piperidin1yl(4-NH2,4-COOH) = NC1(C(=O)O)CCN(*)CC1

For the compound `CC(C)C[C@@H](NC(=O)[C@@H](Cc1ccccc1)NC(=O)CNC[C@H](C)c1ccccc1)C(=O)N[C@H](CCCCN)C(=O)N1CCC(N)(C(=O)O)CC1` [Acetate (1:2)] (H-[Gly(N-(2R-Ph-propyl))][dF][dL][dK]-{Piperidin1yl(4-NH2,4-COOH)}), the “Stability (conclusion in words)” value in data set [1] (high temperature) is recorded as “poor stability”. Besides, the “acetate (radical) content by ion chromatography” value in data set [1] (high temperature, after the 20-day experiment) is “greatly reduced”.

`CC(C)C[C@@H](NC(=O)[C@@H](Cc1ccccc1)NC(=O)CNC[C@H](C)c1ccccc1)C(=O)N[C@H](CCCCN)C(=O)N1CCC(N)(C(=O)O)CC1` [Citrate (1:2)] (H-[Gly(N-(2R-Ph-propyl))][dF][dL][dK]-{Piperidin1yl(4-NH2,4-COOH)}): the “Stability (conclusion in words)” value in data set [1] (high temperature of 60° C.) is “degraded greatly”.

Take `CC(C)C[C@@H](NC(=O)[C@@H](Cc1ccccc1)NC(=O)CNC[C@H](C)c1ccccc1)C(=O)N[C@H](CCCCN)C(=O)N1CCC(N)(C(=O)O)CC1` [Embodiment 2, 4-amino-1-((2R,5R,8R,14R)-2-(4-aminobutyl)-8-benzyl-5-isobutyl-4,7,10-trioxo-14-phenyl-3,6,9,12-tetraazapentadecan-1-acyl)piperidine-4-carboxylic acid] (H-[Gly(N-(2R-Ph-propyl))][dF][dL][dK]-{Piperidin1yl(4-NH2,4-COOH)}): the Purity % in data set [1] (25° C., 5 days) is reported as 97.64%; in data set [1] (25° C., 10 days), 97.64%; in data set [1] (25° C., 20 days), 97.63%; in data set [1] (40° C., 5 days), 96.23%; in data set [1] (4500 Lux, 0 days (initial)), 97.65%; in data set [1] (4500 Lux, 5 days) it was 96.99%. The Purity % in data set [1] (4500 Lux, 10 days) is listed as 96.68%; in data set [1] (4500 Lux, 20 days) it was 96.72%.

For `CC(C)C[C@@H](NC(=O)[C@@H](Cc1ccccc1)NC(=O)CNC[C@H](C)c1ccccc1)C(=O)N[C@H](CCCCN)C(=O)N1CCC(N)(C(=O)O)CC1` [Embodiment 3, 4-amino-1-((2R,5R,8R,14R)-2-(4-aminobutyl)-8-benzyl-5-isobutyl-4,7,10-trioxo-14-phenyl-3,6,9,12-tetraazapentadecan-1-acyl)piperidine-4-carboxylic acid] (H-[Gly(N-(2R-Ph-propyl))][dF][dL][dK]-{Piperidin1yl(4-NH2,4-COOH)}), the Purity % in data set [2] (4° C., 1 month) is recorded as 99.59%; in data set [2] (4° C., 3 months) it was 99.58%; in data set [2] (4° C., 6 months), 99.60%; in data set [2] (4° C., initial), 99.59%; in data set [2] (setting [3]), 99.58%; in data set [2] (setting [4]), 99.51%. The Purity % came out at 99.54% in data set [2] (setting [5]); 99.59% in data set [2] (setting [6]); 99.62% in data set [2] (25° C., 60% Rh, 1 month); 99.61% in data set [2] (25° C., 60% Rh, 3 months); 99.57% in data set [2] (25° C., 60% Rh, 6 months); 99.59% in data set [2] (25° C., 60% Rh, initial). Further, the Aspect entry is on record as “White” in data set [2] (setting [3]); “White” in data set [2] (setting [4]); “White” in data set [2] (setting [5]); “White” in data set [2] (setting [6]); “White” in data set [2] (25° C., 60% Rh, 1 month); “White” in data set [2] (25° C., 60% Rh, 3 months). The Aspect result in data set [2] (25° C., 60% Rh, 6 months) is on record as “White”; in data set [2] (25° C., 60% Rh, initial) it was “White”.

For the compound `CC(C)C[C@@H](NC(=O)[C@@H](Cc1ccccc1)NC(=O)CNC[C@H](C)c1ccccc1)C(=O)N[C@H](CCCCN)C(=O)N1CCC(N)(C(=O)O)CC1` [Embodiment 4, 4-amino-1-((2R,5R,8R,14R)-2-(4-aminobutyl)-8-benzyl-5-isobutyl-4,7,10-trioxo-14-phenyl-3,6,9,12-tetraazapentadecan-1-acyl)piperidine-4-carboxylic acid] (H-[Gly(N-(2R-Ph-propyl))][dF][dL][dK]-{Piperidin1yl(4-NH2,4-COOH)}), the Purity % in data set [1] (25° C., 5 days) is recorded as 97.56%; in data set [1] (25° C., 10 days), 97.44%; in data set [1] (25° C., 20 days), 97.28%; in data set [1] (40° C., 5 days), 86.31%; in data set [1] (4500 Lux, 0 days (initial)) it was 97.70%; in data set [1] (4500 Lux, 5 days), 95.83%. Moreover, the Purity % amounted to 94.91% in data set [1] (4500 Lux, 10 days) and 92.17% in data set [1] (4500 Lux, 20 days).

As for `CC(C)C[C@@H](NC(=O)[C@@H](Cc1ccccc1)NC(=O)CNC[C@H](C)c1ccccc1)C(=O)N[C@H](CCCCN)C(=O)N1CCC(N)(C(=O)O)CC1` [Embodiment 6, 4-amino-1-((2R,5R,8R,14R)-2-(4-aminobutyl)-8-benzyl-5-isobutyl-4,7,10-trioxo-14-phenyl-3,6,9,12-tetraazapentadecan-1-acyl)piperidine-4-carboxylic acid] (H-[Gly(N-(2R-Ph-propyl))][dF][dL][dK]-{Piperidin1yl(4-NH2,4-COOH)}), the Purity % is reported as 99.27% in data set [1] (25° C., 5 days); 99.27% in data set [1] (25° C., 10 days); 99.30% in data set [1] (25° C., 20 days); 99.03% in data set [1] (40° C., 5 days); 99.32% in data set [1] (4500 Lux, 0 days (initial)); 97.13% in data set [1] (4500 Lux, 5 days). In addition, the Purity % was determined as 95.32% in data set [1] (4500 Lux, 10 days) and 92.39% in data set [1] (4500 Lux, 20 days).

On to `CC(C)C[C@@H](NC(=O)[C@@H](Cc1ccccc1)NC(=O)CNC[C@H](C)c1ccccc1)C(=O)N[C@H](CCCCN)C(=O)N1CCC(N)(C(=O)O)CC1` [Embodiment 11, 4-amino-1-((2R,5R,8R,14R)-2-(4-aminobutyl)-8-benzyl-5-isobutyl-4,7,10-trioxo-14-phenyl-3,6,9,12-tetraazapentadecan-1-acyl)piperidine-4-carboxylic acid] (H-[Gly(N-(2R-Ph-propyl))][dF][dL][dK]-{Piperidin1yl(4-NH2,4-COOH)}), for which the Purity % in data set [2] (4° C., 1 month) was determined as 99.49%; in data set [2] (4° C., 3 months), 99.56%; in data set [2] (4° C., 6 months), 99.57%; in data set [2] (4° C., initial), 99.50%; in data set [2] (setting [3]) it was 99.50%; in data set [2] (setting [4]), 99.51%. The Purity % in data set [2] (setting [5]) was found to be 99.51%; in data set [2] (setting [6]) it was 99.50%; in data set [2] (25° C., 60% Rh, 1 month), 99.50%; in data set [2] (25° C., 60% Rh, 3 months) it was 99.52%; in data set [2] (25° C., 60% Rh, 6 months), 99.5%; in data set [2] (25° C., 60% Rh, initial), 99.50%.

As to `CC(C)C[C@@H](NC(=O)[C@@H](Cc1ccccc1)NC(=O)CNC[C@H](C)c1ccccc1)C(=O)N[C@H](CCCCN)C(=O)N1CCC(N)(C(=O)O)CC1` [Embodiment 12, 4-amino-1-((2R,5R,8R,14R)-2-(4-aminobutyl)-8-benzyl-5-isobutyl-4,7,10-trioxo-14-phenyl-3,6,9,12-tetraazapentadecan-1-acyl)piperidine-4-carboxylic acid] (H-[Gly(N-(2R-Ph-propyl))][dF][dL][dK]-{Piperidin1yl(4-NH2,4-COOH)}), the Purity % is 96.93% in data set [1] (25° C., 5 days); 96.80% in data set [1] (25° C., 10 days); 96.97% in data set [1] (25° C., 20 days); 97.04% in data set [1] (4500 Lux, 0 days (initial)); 96.65% in data set [1] (4500 Lux, 5 days); 96.63% in data set [1] (4500 Lux, 10 days). The compound also had a Purity % in data set [1] (4500 Lux, 20 days) of 96.77%.

For `CC(C)C[C@@H](NC(=O)[C@@H](Cc1ccccc1)NC(=O)CNC[C@H](C)c1ccccc1)C(=O)N[C@H](CCCCN)C(=O)N1CCC(N)(C(=O)O)CC1` [Embodiment 13, 4-amino-1-((2R,5R,8R,14R)-2-(4-aminobutyl)-8-benzyl-5-isobutyl-4,7,10-trioxo-14-phenyl-3,6,9,12-tetraazapentadecan-1-acyl)piperidine-4-carboxylic acid] (H-[Gly(N-(2R-Ph-propyl))][dF][dL][dK]-{Piperidin1yl(4-NH2,4-COOH)}), the Purity % is reported as 97.39% in data set [1] (4500 Lux, 0 days (initial)); 97.29% in data set [1] (4500 Lux, 5 days); 97.28% in data set [1] (4500 Lux, 10 days); 97.28% in data set [1] (4500 Lux, 20 days).

`CC(C)C[C@@H](NC(=O)[C@@H](Cc1ccccc1)NC(=O)CNC[C@H](C)c1ccccc1)C(=O)N[C@H](CCCCN)C(=O)N1CCC(N)(C(=O)O)CC1` [Embodiment 14, 4-amino-1-((2R,5R,8R,14R)-2-(4-aminobutyl)-8-benzyl-5-isobutyl-4,7,10-trioxo-14-phenyl-3,6,9,12-tetraazapentadecan-1-acyl)piperidine-4-carboxylic acid] (H-[Gly(N-(2R-Ph-propyl))][dF][dL][dK]-{Piperidin1yl(4-NH2,4-COOH)}): the Purity % in data set [1] (4500 Lux, 0 days (initial)) is 99.19%; in data set [1] (4500 Lux, 5 days), 99.15%; in data set [1] (4500 Lux, 10 days), 99.12%; in data set [1] (4500 Lux, 20 days), 99.12%.

Turning to `CC(C)C[C@@H](NC(=O)[C@@H](Cc1ccccc1)NC(=O)CNC[C@H](C)c1ccccc1)C(=O)N[C@H](CCCCN)C(=O)N1CCC(N)(C(=O)O)CC1` [hydrochloride (1:2)] (H-[Gly(N-(2R-Ph-propyl))][dF][dL][dK]-{Piperidin1yl(4-NH2,4-COOH)}), in data set [1] (illumination and high temperature, 20 days), the “Stability (conclusion in words)” value is reported as “slightly degraded”.

As to `CC(C)C[C@@H](NC(=O)[C@@H](Cc1ccccc1)NC(=O)CNC[C@H](C)c1ccccc1)C(=O)N[C@H](CCCCN)C(=O)N1CCC(N)(C(=O)O)CC1` [hydrochloride (1:3)] (H-[Gly(N-(2R-Ph-propyl))][dF][dL][dK]-{Piperidin1yl(4-NH2,4-COOH)}), the “Stability (conclusion in words)” value in data set [1] (illumination condition) is listed as “slightly degraded”; in data set [1] (other conditions (than illumination)) it was “stable”.
